Laboratory results reported in patent US20250353891A1 (MEDIMMUNE LIMITED, priority 2022, published 2025).
Like-named read-outs stand apart in the source and are kept apart here. Starred links: 1 amine or outer side, 2 acyl side, 3 side chain; linkers in the order of their positions; H or OH if unused. Non-standard residues stand in square brackets, D forms with d. Residues, ends and D or L forms follow the SMILES beside them. Groups on a side chain read outwards from the residue. *: point of attachment. C18 diacid = O=C(O)CCCCCCCCCCCCCCCCC(=O)*; Dip = N[C@H](C(=O)O)C(c1ccccc1)c1ccccc1; γGlu = O=C(O)[C@H](CCC(=O)[*:2])N[*:1]; Stearoyl = CCCCCCCCCCCCCCCCCC(=O)*; Palmitoyl = CCCCCCCCCCCCCCCC(=O)*; αMeF = C[C@](N)(Cc1ccccc1)C(=O)O; PEG4 = NCCOCCOCCOCCOCCC(=O)O; PEG2 = NCCOCCOCCC(=O)O; AEEA = NCCOCCOCC(=O)O; Aib = CC(C)(N)C(=O)O

Columns and labels:
[1] = Mouse acute food intake study; assay type: in vivo; details: male C57Bl/6 mice, s.c., dose 10 nmol/kg, cumulative food intake at 24 hr vs vehicle
Outline: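 Peptide or vehicle went subcutaneously (5 mL/kg) to 6-8 h-fasted male C57Bl/6 mice shortly before the dark phase, with groups balanced on body weight and 24-hour intake. Cumulative food consumption was derived from 48 h of automated BioDaq monitoring with free food and water access.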

[2] = Proteolytic resistance to FasSSIF/Pancreatin; assay type: in vitro ADME; details: simulated intestinal fluid
Method: A fresh suspension of FasSSIF/P (Fasted-State Simulated Intestinal Fluid+USP Pancreatin®) was prepared according to that described by Galia, Nicolaides, Hörter, Löbenberg, Reppas and Dressman: Pharm. Res. 15 (1998) 698-705, and USP XL requirements. The resulting preparation was used immediately without storage.
Peptide for evaluation (1.0 mg) was dissolved in pre-warmed FasSSIF without Pancreatin® (200 μL). To this fresh FasSSIF/Pancreatin® (100 μL) was added to initiate potential proteolysis. Following momentary vortexing of the reaction tube the mixture was incubated at 37° C. in a thermostatic water bath for the duration of the experiment. 25 μL aliquot of the co-incubated peptide-enzyme mixture was periodically withdrawn (t=0, 5, 10 15 and 30 min) and quenched immediately by addition to a solution of 10% TFA in 1:1 water/acetonitrile (75 μL) to arrest proteolytic activity. Quenched samples were centrifuged (7800 RPM, 3 mins) to pellet solids and 10 μL aliquots of the supernatant solution were analyzed using analytical RP-HPLC as follows: Analytical RP-HPLC method: Agilent Polaris C8-A column (4.6×100 mm, 3 micron) eluted with a linear binary gradient of 10-90% MeCN (0.1% TFA v/v) in water (0.1% TFA v/v) over either 10 or 15 mins at 1.5 mL min^−1 at 40° C. with detection by UV absorption at 210 nm. Manual integration (AUC) allowed estimation of remaining intact peptide over the time course of the experiment.

[3] = tested on: GLP-1R knockout (KO) mice; assay: Glucose change in GLP-1R knockout mice; assay type: in vivo, mouse; details: GLP-1R KO mice, s.c.; for GLP-1R KO % glucose change 120 min: 120 min vs 0 min; for GLP-1R KO % glucose change - 60 min: 60 min vs 0 min
Method: (§1) They acclimated for a minimum of ˜1-2 weeks, and mice were sorted into groups (n=4-8/group) based on body weight. On day of study, mice were fasted briefly for 2 hrs prior to study start. In some studies, mice were pre-treated with octreotide (BaChem, 10 mg/kg) at 30 minutes prior to peptide injection. Glucose was measured via glucometer at various timepoints including-30 min (prior to octreotide when used in studies), 0 min (before peptide dose), 30, 60, 120, 180, 240, and 360 minutes. Since these studies are acute in nature, mice were re-used for multiple studies (no more than 3) and always allowed at least a minimum wash-out period of 1 week.

wildtype (WT) mice = assay: Glucose change in wildtype mice; assay type: in vivo, mouse; details: s.c.; for WT % glucose change 120 min: 120 min vs 0 min; for WT % glucose change 60 min: 60 min vs 0 min
Method: as §1, with “GLP-1R knockout (KO) and wildtype (WT) mice at 8-14 weeks of age were singly housed on standard chow diet (Envigo, 2918) and automatic water. They” for “They”

[4] = molecular target: human GLP-1 receptor (hGLP-1R) (Homo sapiens, UniProt P43220); assay: cAMP production (HTRF) in CHO cells expressing hGLP-1R; assay type: cell-based; set-up: expressed in transfected cells; details: for EC50: geometric mean, read-out: hGLP-1R EC50; for % Relative Potency Ratio: % GLP-1R activity relative to GLP-1 / % GlucR activity relative to glucagon
Sequence of human GLP-1 receptor (hGLP-1R) (P43220 24-463): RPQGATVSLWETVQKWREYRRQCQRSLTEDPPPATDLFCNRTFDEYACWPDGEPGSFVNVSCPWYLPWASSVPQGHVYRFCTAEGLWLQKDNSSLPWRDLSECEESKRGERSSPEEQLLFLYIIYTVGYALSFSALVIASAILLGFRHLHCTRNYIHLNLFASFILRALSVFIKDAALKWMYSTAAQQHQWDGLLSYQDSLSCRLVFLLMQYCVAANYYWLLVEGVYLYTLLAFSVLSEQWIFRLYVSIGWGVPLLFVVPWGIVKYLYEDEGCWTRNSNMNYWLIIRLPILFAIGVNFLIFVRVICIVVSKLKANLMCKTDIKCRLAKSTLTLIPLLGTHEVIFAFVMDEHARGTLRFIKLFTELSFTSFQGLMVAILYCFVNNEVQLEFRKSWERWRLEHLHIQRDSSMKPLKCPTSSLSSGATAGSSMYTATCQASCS
Outline: (§2)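 Read-out: HTRF cAMP (anti-cAMP cryptate donor, cAMP-d2 acceptor in conjugate/lysis buffer), converted to % Delta F and fitted by 4-parameter logistic for EC50. Cell densities were 1×10^5 cells/mL (hGLP-1R) or 2×10^5 cells/mL (hGCGR). Stimulation lasted 30 min at room temperature.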

[5] = molecular target: human glucagon receptor (hGCGR) (Homo sapiens, UniProt P47871); assay: cAMP production (HTRF) in CHO cells expressing hGCGR; assay type: cell-based; set-up: expressed in transfected cells; details: geometric mean, read-out: hGluc-R EC50
Sequence of human glucagon receptor (hGCGR) (P47871 26-477): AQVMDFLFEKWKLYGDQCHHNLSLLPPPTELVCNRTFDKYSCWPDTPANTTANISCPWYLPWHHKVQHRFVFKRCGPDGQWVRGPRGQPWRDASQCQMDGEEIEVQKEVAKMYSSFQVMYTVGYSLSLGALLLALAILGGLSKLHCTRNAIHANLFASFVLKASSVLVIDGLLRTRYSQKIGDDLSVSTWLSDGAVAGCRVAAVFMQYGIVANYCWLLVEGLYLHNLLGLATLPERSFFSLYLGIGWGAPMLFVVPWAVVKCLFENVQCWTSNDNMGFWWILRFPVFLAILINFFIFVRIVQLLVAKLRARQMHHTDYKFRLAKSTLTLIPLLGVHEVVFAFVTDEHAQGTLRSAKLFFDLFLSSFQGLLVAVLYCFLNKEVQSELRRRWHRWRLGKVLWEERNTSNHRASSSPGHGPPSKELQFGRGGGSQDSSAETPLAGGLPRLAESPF
Outline: as §2

[6] = 3 nmol/kg, no somatostatin pretreatment
[7] = Table 6, peptides modified at position 17, cAMP in CHO hGLP-1R cells
[8] = Table 6, peptides modified at position 17, cAMP in CHO hGCGR cells
[9] = 10 nmol/kg, somatostatin pretreatment (octreotide) 30 min prior to cpd
[10] = 30 nmol/kg, somatostatin pretreatment (octreotide) 30 min prior to cpd
[11] = 10 nmol/kg, no somatostatin pretreatment
[12] = 30 nmol/kg, no somatostatin pretreatment

remaining at 5 min, 3.3 mg/mL [2] | remaining at 10 min, 3.3 mg/mL [2] | remaining at 0.25 h, 3.3 mg/mL [2] | remaining at 0.5 h, 3.3 mg/mL [2] | EC50 [4, 7] | % Relative Potency Ratio ([4]; Table 6) | EC50 [5, 8] | SMILES | 24 hr % Vehicle Food Intake [1] | GLP-1R KO % glucose change 120 min [3, 9] | GLP-1R KO % glucose change 120 min [3, 10] | WT % glucose change 120 min (wildtype (WT) mice; [9]) | WT % glucose change 120 min (wildtype (WT) mice; [10]) | also measured
83% | 33% | 29% | 19% | 0.00189 nM | 5.8 | 0.00552 nM | CCCCCCCCCCCCCCCC(=O)N[C@@H](CCC(=O)N[C@@H](CCC(=O)NCCOCCOCCOCCOCCC(=O)NCCCC[C@H](NC(=O)[C@H](CO)NC(=O)[C@H](CC(=O)O)NC(=O)[C@H](CC(C)C)NC(=O)[C@@H](NC(=O)[C@H](CCCCN)NC(=O)[C@H](CO)NC(=O)[C@@H](NC(=O)[C@H](CC(=O)O)NC(=O)[C@H](CO)NC(=O)[C@@H](NC(=O)[C@](C)(Cc1ccccc1)NC(=O)[C@H](CO)NC(=O)CNC(=O)[C@H](CCC(N)=O)NC(=O)C(C)(C)NC(=O)[C@@H](N)Cc1c[nH]cn1)[C@@H](C)O)C(C)C)C(c1ccccc1)c1ccccc1)C(=O)N[C@@H](CCCNC(=N)N)C(=O)N[C@@H](C)C(=O)N[C@@H](CCC(N)=O)C(=O)N[C@@H](CC(=O)O)C(=O)N[C@@](C)(Cc1ccccc1)C(=O)N[C@H](C(=O)N[C@@H](CCC(=O)O)C(=O)NC(C)(C)C(=O)N[C@@H](CC(C)C)C(=O)N[C@@H](CCC(=O)O)C(=O)N[C@@H](C)C(=O)NCC(=O)NCC(N)=O)C(C)C)C(=O)O)C(=O)O [Peptide 43] (H-H[Aib]QGS[αMeF]TSDVSK[Dip]LDSK([PEG4-γGlu-γGlu-Palmitoyl])RAQD[αMeF]VE[Aib]LEAGG-NH2; N-terminus assumed) | 53.2% | – | – | – | – | GLP-1R KO % glucose change 120 min [3, 6]: 63.9%; WT % glucose change 120 min (wildtype (WT) mice; [6]): −56.0%
97% | 96% | 95% | 90% | 0.00174 nM | 2.0 | 0.00173 nM | CCCCCCCCCCCCCCCCCC(=O)N[C@@H](CCC(=O)N[C@@H](CCC(=O)NCCOCCOCCC(=O)NCCOCCOCCC(=O)NCCCC[C@H](NC(=O)[C@H](CO)NC(=O)[C@H](CC(=O)O)NC(=O)[C@H](CC(C)C)NC(=O)[C@@H](NC(=O)[C@H](CCCCN)NC(=O)[C@H](CO)NC(=O)[C@@H](NC(=O)[C@H](CC(=O)O)NC(=O)[C@H](CO)NC(=O)[C@@H](NC(=O)[C@](C)(Cc1ccccc1)NC(=O)[C@H](CO)NC(=O)CNC(=O)[C@H](CCC(N)=O)NC(=O)[C@H](CO)NC(=O)[C@@H](N)Cc1c[nH]cn1)[C@@H](C)O)C(C)C)C(c1ccccc1)c1ccccc1)C(=O)N[C@@H](C)C(=O)N[C@@H](C)C(=O)N[C@@H](CCC(N)=O)C(=O)N[C@@H](CC(=O)O)C(=O)N[C@@](C)(Cc1ccccc1)C(=O)N[C@H](C(=O)N[C@@H](CCC(=O)O)C(=O)NC(C)(C)C(=O)N[C@H](C(=O)N[C@@H](C)C(=O)N[C@@H](CC(N)=O)C(=O)N[C@H](C(N)=O)[C@@H](C)O)[C@@H](C)CC)C(C)C)C(=O)O)C(=O)O [Peptide 49] (H-HSQGS[αMeF]TSDVSK[Dip]LDSK([PEG2-PEG2-γGlu-γGlu-Stearoyl])AAQD[αMeF]VE[Aib]IANT-NH2; N-terminus assumed) | 69.2% | 193.3% | 154.3% | −1.2% | 16.8% | –
– | – | – | – | – | – | – | CC[C@H](C)[C@H](NC(=O)C(C)(C)NC(=O)[C@H](C)NC(=O)[C@@H](NC(=O)[C@](C)(Cc1ccccc1)NC(=O)[C@H](CC(=O)O)NC(=O)[C@H](CCCCNC(=O)COCCOCCNC(=O)COCCOCCNC(=O)CC[C@H](NC(=O)CCCCCCCCCCCCCCCCC(=O)O)C(=O)O)NC(=O)[C@H](C)NC(=O)[C@H](C)NC(=O)[C@H](CCCNC(=N)N)NC(=O)[C@H](CO)NC(=O)[C@H](CC(=O)O)NC(=O)[C@H](CC(C)C)NC(=O)[C@](C)(Cc1ccccc1)NC(=O)[C@H](CCCCN)NC(=O)[C@H](CO)NC(=O)[C@@H](NC(=O)[C@H](CC(=O)O)NC(=O)[C@H](CO)NC(=O)[C@@H](NC(=O)[C@](C)(Cc1ccccc1)NC(=O)[C@H](CO)NC(=O)CNC(=O)[C@H](Cc1c[nH]cn1)NC(=O)C(C)(C)NC(=O)[C@@H](N)Cc1c[nH]cn1)[C@@H](C)O)C(C)C)[C@@H](C)CC)C(=O)N[C@@H](C)C(=O)N[C@@H](CCC(=O)O)C(=O)N[C@H](C(N)=O)[C@@H](C)O [Peptide 301] (H-H[Aib]HGS[αMeF]TSDVSK[αMeF]LDSRAAK([AEEA-AEEA-γGlu-C18 diacid])D[αMeF]IA[Aib]IAET-NH2; N-terminus assumed) | 54.9% | – | – | – | – | GLP-1R KO % glucose change - 60 min [3, 11]: 29.1%; GLP-1R KO % glucose change - 60 min [3, 12]: 17.9%; WT % glucose change 60 min (wildtype (WT) mice; [11]): −43%; WT % glucose change 60 min (wildtype (WT) mice; [12]): −35.7%; EC50 ([4]; Table 7, peptides modified at position 20, cAMP in CHO hGLP-1R cells): 0.0553 nM; % Relative Potency Ratio ([4]; Table 7): 1.1; EC50 ([5]; Table 7, peptides modified at position 20, cAMP in CHO hGCGR cells): 0.0318 nM
– | – | – | – | – | – | – | CC[C@H](C)[C@H](NC(=O)[C@H](Cc1c[nH]c2ccccc12)NC(=O)[C@H](CCCCNC(=O)COCCOCCNC(=O)COCCOCCNC(=O)CC[C@H](NC(=O)CCCCCCCCCCCCCCCCC(=O)O)C(=O)O)NC(=O)[C@@H](NC(=O)[C@H](Cc1ccccc1)NC(=O)[C@H](CC(=O)O)NC(=O)[C@H](CCC(N)=O)NC(=O)[C@H](C)NC(=O)[C@H](C)NC(=O)[C@H](CCCNC(=N)N)NC(=O)[C@H](CO)NC(=O)[C@H](CC(=O)O)NC(=O)[C@H](CC(C)C)NC(=O)[C@](C)(Cc1ccccc1)NC(=O)[C@H](CCCCN)NC(=O)[C@H](CO)NC(=O)[C@@H](NC(=O)[C@H](CC(=O)O)NC(=O)[C@H](CO)NC(=O)[C@@H](NC(=O)[C@](C)(Cc1ccccc1)NC(=O)[C@H](CO)NC(=O)CNC(=O)[C@H](Cc1c[nH]cn1)NC(=O)C(C)(C)NC(=O)[C@@H](N)Cc1c[nH]cn1)[C@@H](C)O)C(C)C)C(C)C)C(=O)N[C@@H](C)C(=O)N[C@@H](CC(N)=O)C(=O)N[C@H](C(N)=O)[C@@H](C)O [Peptide 361] (H-H[Aib]HGS[αMeF]TSDVSK[αMeF]LDSRAAQDFVK([AEEA-AEEA-γGlu-C18 diacid])WIANT-NH2; N-terminus assumed) | 78.8% | 91.5% | 93.8% | −23.0% | −38.1% | % Relative Potency Ratio [4]: 1.3; EC50 ([4]; cAMP, CHO cells, 0.1% BSA): 0.0357 nM; EC50 ([5]; cAMP, CHO cells, 0.1% BSA): 0.0236 nM
